Patent US6914056B1, “Pharmaceutical compositions comprising cyclic glycerophosphates and analogs thereof for promoting neural cell differentiation” (Yeda Research and Development Co., Ltd., priority 1999, dated 2005)
“Also recorded” adds a separate entry of the source.

B1: NGF: nerve growth factor, a growth factor that differentiates PC12 cells to neuronal cells (protein, UniProt P01139 122-241, looked up)
Beta-nerve growth factor: SSTHPVFHMGEFSVCDSVSVWVGDKTTATDIKGKEVTVLAEVNINNSVFRQYFFETKCRASNPVESGCRGIDSKHWNSYCTTTHTFVKALTTDEKQAAWRFIRIDTACVCVLSRKATRRG

How the values were obtained:
Assay type in all cases: cell-based, rat
PC12 cells [1] = assay: Neuronal outgrowth of PC12 cells, factors in growth medium for 48 hours (Example 12, FIG. 1); conditions: 48 hours in growth medium with factor, 1,3 cGP 1 μM, NGF 50 ng/ml, α glycerophosphate as control
Experimental: (§1) The immortal PC12 cell line is one of the most investigated systems in neuronal differentiation. In the presence of nerve growth factor these cells differentiate to neuronal cells. PC12 cells originated from rat pheochromocytoma were grown as monolayers in Eagle's medium (EM) supplemented with 10% fetal calf serum, 50 μg/ml gentamicin and 5 mM glutamine, in a humidified incubator buffered with 5% CO2, at 37° C. The culture medium is changed every four days and the cells are passaged every eight days and performed confluent monolayers (1.5×10^6 in a 10 cm plate or 10^5 cells per well in 24 wells plate). PC12 cells are originally round cells which, following several days in the presence of nerve growth factor (NGF) process nerves. Upon withdrawal of the NGF, the nerves retract and a process of apoptosis is initiated in the cells.
PC12 cells were grown in culture as explained above, the cells were divided into three groups and different factors were added to the growth medium of each group for 48 hours as follows: • Group A—α glycerophosphate. • Group B—nerve growth factor (NGF) at a concentration of 50 ng/ml. • Group C —1,3 cGP at a concentration of 1 μM.
The rate of neuronal growth in each of the above cultures was monitored and documented by microscopic photographs.

PC12 cells [2] = assay: Neural outgrowth of PC12 cells after consecutive seven-day incubation (Example 15, FIG. 3); conditions: PC12 cells incubated for consecutive 7 days; CGs at 0.5 μM
Experimental: as §1
The cells were incubated with the various factors for a consecutive period of seven days. Neural outgrowth was monitored and microscopic photographs were taken following the seven day incubation with the above factors.

PC12 cells [3] = assay: Neural outgrowth of PC12 cells after three-hour pulse and wash, photographed on day 7 (Example 14, FIG. 2); conditions: for promotion of neuronal outgrowth (summary statement): PC12 adrenal tumorigenic cells in culture, after a short incubation period; for neural outgrowth (microscopic photographs): PC12 cells pulsed for three hours, washed, grown in growth medium without factor, day 7 after treatment
Experimental: as §1
Cells were grown as described above and divided into groups which were each grown with one of the following:
The above factors were added to the cells for a period of three hours after which they were washed away from the cells. […] The neural outgrowth of the cells was monitored and microscopic photographs were taken on day seven after treatment with the above factors.

PC12 cells [4] = assay: Nerve rescue of NGF-differentiated PC12 cells after NGF withdrawal, 14-day culture (Example 19, FIG. 4)
Experimental: as §1
To study nerve rescue by 1,3 cPP, PC12 cells were incubated in tissue culture medium for a period of 14 days. Within this period, the cells were either grown in the presence of nerve growth factor (NGF) for different periods of times or were grown in the presence of 1,3, cPP for various periods of time. Neuronal differentiation and spread was examined in the various cells.

Row | Molecule | neural outgrowth (microscopic photographs) (PC12 cells [1]) | neural outgrowth (microscopic photographs) (PC12 cells [2]) | promotion of neuronal outgrowth (summary statement) (PC12 cells [3]) | neural outgrowth (microscopic photographs) (PC12 cells [3]) | neural outgrowth (microscopic photographs) (PC12 cells [1]; listed as 1,3 GP) | rescue of the neuronal network from retraction (PC12 cells [4]; PC12 cells 7 days with NGF 50 ng/ml, then 7 days with 2 μM, 4 μM or 6 μM 1,3 cPP) | nerve retraction after NGF withdrawal (PC12 cells [4]; PC12 cells 7 days with NGF 50 ng/ml, then 7 days without NGF) | neuronal differentiation (PC12 cells [4]; PC12 cells grown with NGF 50 ng/ml for full 14 days)
1 | O=P(O)(O)OCC(O)CO (stereo in doubt) [αGP, L-α-glycerophosphate, reference compound] | did not promote neural outgrowth | No neural outgrowth was observed | – | – | – | – | – | –
2 | O=P1(O)OCC(CO)O1 (centres unmarked) [1,2 cGP, 1,2 cyclic glycerophosphate] | – | neural outgrowth is observed to different extents | capable of promoting neuronal outgrowth | Neural outgrowth is seen | – | – | – | –
3 | O=P1(O)OCC(O)CO1 (centres unmarked) [1,3 cGP, 1,3 cyclic glycerophosphate] | neural outgrowth was clearly seen | neural outgrowth is observed to different extents | capable of promoting neuronal outgrowth | Neural outgrowth is seen | Neuronal outgrowth is clearly seen | – | – | –
4 | O=P1(O)OCCCO1 [1,3 cPP, 1,3 cyclic propanediol phosphate] | – | neural outgrowth is observed to different extents | – | Neural outgrowth is seen | – | partial to full rescue of the neuronal network | – | –
5 | O=P(O)(O)OC(CO)CO [βGP, β-Glycerophosphate, reference compound] | – | No neural outgrowth was observed | – | – | – | – | – | –
6 | phenyl 1,3 cyclic glycerophosphate [phenyl-1,3 cGP] | – | neural outgrowth is observed to different extents | – | Neural outgrowth is seen | – | – | – | –
7 | phenyl 1,3 cyclic propanediol phosphate [phenyl-1,3 cPP] | – | neural outgrowth is observed to different extents | – | Neural outgrowth is seen | – | – | – | –
8 | B1 | neural outgrowth was clearly seen; also recorded: Neuronal outgrowth is clearly seen | neural outgrowth was seen; also recorded: extensive neural outgrowth is seen | – | did not promote any nerve generation | – | – | complete nerve retraction was observed | full neuronal differentiation
